One assay has as its target T1, Human SLC6A14 (Homo sapiens, UniProt Q9UN76).
T1 construct: expressed in transfected cells; host or cells: Xenopus laevis oocytes, microinjected with human SLC6A14 cRNA
T1 sequence (Q9UN76 1-642): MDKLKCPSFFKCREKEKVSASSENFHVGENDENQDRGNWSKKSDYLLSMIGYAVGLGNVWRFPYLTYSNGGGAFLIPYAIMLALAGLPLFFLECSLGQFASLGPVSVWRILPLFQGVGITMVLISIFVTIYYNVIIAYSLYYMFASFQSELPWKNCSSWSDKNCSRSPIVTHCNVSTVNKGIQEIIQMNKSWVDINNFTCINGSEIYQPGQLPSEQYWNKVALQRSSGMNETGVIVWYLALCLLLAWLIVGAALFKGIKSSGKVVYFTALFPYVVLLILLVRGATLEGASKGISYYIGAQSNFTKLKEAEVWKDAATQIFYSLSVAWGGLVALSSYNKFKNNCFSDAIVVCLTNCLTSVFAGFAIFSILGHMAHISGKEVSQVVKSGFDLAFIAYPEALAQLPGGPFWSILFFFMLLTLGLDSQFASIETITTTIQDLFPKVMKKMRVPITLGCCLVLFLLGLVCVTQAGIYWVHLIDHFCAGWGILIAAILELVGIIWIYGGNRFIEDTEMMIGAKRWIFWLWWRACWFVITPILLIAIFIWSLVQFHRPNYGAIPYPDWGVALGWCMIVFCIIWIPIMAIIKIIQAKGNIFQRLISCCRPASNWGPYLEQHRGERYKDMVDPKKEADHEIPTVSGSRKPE
The assay can be described thus: SLC6A14 transport function in X. laevis oocytes (two-microelectrode voltage-clamp). It counts as cell-based. To be noted: 1 mM α-MT; currents induced by 100 M (so in the source) leucine, glutamine or arginine. An excerpt:
FIGS. 3A and 3B. Natactivation kinetics of SLC6A14-mediated transport of leucine (FIG. 3A) and arginine and glutamine (FIG. 3B). Human SLC6A14 was expressed heterologously in X. laevis oocytes by microinjection of cRNA. Four days following injection, oocytes were used for electrophysiological studies using the two-microelectrode voltage-clamp method. […] Since the expression levels varied from oocyte to oocyte resulting in varying magnitudes of amino acid-induced currents, the currents were normalized by taking the magnitude of the currents induced at 100 mM Na^+ as 1 in each oocyte and calculating the magnitude of the currents induced at other concentrations of Na^+ as a fraction of this maximal current. The experiments were done with three different oocytes and the results are given as means±SE. Insets, Hill plots.
FIG. 4. Cl^−-activation kinetics of SLC6A14-mediated transport of leucine, arginine, and glutamine. […] The experiments were done with three different oocytes and the results are given as means±SE.
FIGS. 5A to 5C. Blockade of SLC6A14-mediated transport of leucine (FIG. 5A), glutamine (FIG. 5B), and arginine (FIG. 5C) by α-MT. Oocytes injected with human SLC6A14 cRNA were perifused with 100 µM leucine, 100 μM glutamine, or 100 μM arginine under varying experimental conditions as indicated.
Analysis of SLC6A14 transport function in X. laevis oocytes. SLC6A14-mediated transport of leucine, glutamine, and arginine and its blockade by α-MT were studied using the X. laevis oocyte heterologous expression system as described previously (Hatanaka et al., 2001, J Clin Invest; 107:1035-1043; and Karunakaran et al., 2008, Biochem J; 414:343-355). Human cloned SLC6A14 cDNA was used in these studies.

The test system of another assay is MB231 cells. Description: Xenograft in nude mice, tumor growth. The format is in vivo, Balb/c nude mice. To be noted: MB231 (ER-negative), α-MT in drinking water 2 mg/ml. As to the method:
(§1) FIGS. 10A to 10D. In vivo efficacy of α-MT in the treatment of ER-positive breast cancer. ZR75.1 (FIG. 10A), MCF7 (FIG. 10B), and MB-231 (FIG. 10C) cells were injected subcutaneously (sc) into Balb/c nude mice (10×10^6 cells per injection site). For MCF7 cells, slow-releasing estrogen pellets were implanted to support the tumor growth. For each cell line, the control group received water with sucrose and the treatment group received α-MT (2 mg/ml) in water with sucrose. Tumor size was measured periodically. NS, not statistically significant (p>0.05); *, p<0.005; two-tailed unpaired Student's t test. In FIG. 10D, Balb/c nude mice were divided into two groups; the control group received water with sucrose and the treatment group received α-MT (2 mg/ml) in water with sucrose for 2 weeks. Mice were then bled and α-MT in plasma was determined by HPLC. Xenograft in nude mice. Human breast cancer cells (ZR75.1, MCF7, and MB231) were injected s.c. close to the lower mammary gland on the right side of Balb/c nude mice (10×10^6 cells per injection site). Only for MCF7 cells, slow-releasing estrogen pellets were implanted to support the tumor growth. Implantation of estrogen pellets was done as follows. […] Tumor size in control and treatment groups was measured periodically by caliper and […] was calculated using the formula (width^2×length)/2.

For a further assay, the system named is ZR75.1 cells. The assay can be described thus: Xenograft in nude mice, tumor growth. The settings on record: ZR75.1 (ER-positive), α-MT in drinking water 2 mg/ml. It counts as in vivo, Balb/c nude mice. The method, then: as §1
In assay [1] the test system is mTOR in SLC6A14-negative cells (MB231). Description: mTOR activity by western blot (phosphorylation of S6 and S6 kinase). It counts as cell-based, human. The settings on record: α-MT 2.5 mM, 24, 48 or 72 h. The method, then: FIGS. 9A to 9D. Influence of α-MT on mTOR activity In FIG. 9A, MCF7 and MB231 cells were treated without or with α-MT (2.5 mM) for 24 h, 48 h, or 72 h, and then the cell lysates were used for western blot. Influence of α-MT with or without 3-MA on cell death. In FIG. 9B, MCF7, MB231, and MCF10A cells were treated for 48 h without or with α-MT (2.5 mM), 3-MA (10 mM), or α-MT (2.5 mM) plus 3-MA (10 mM), and then analyzed for cell death by propidium iodide (PI) staining and FACS-based cell cycle analysis. In FIG. 9C, MCF7 cells were treated for 48 h without or with α-MT (2.5 mM), 3-MA (10 mM), or α-MT (2.5 mM) plus 3-MA (10 mM), and then analyzed for apoptotic cell death by annexin V labeling. In FIG. 9D, MCF7 and MB231 cells were treated without or with 2.5 mM α-MT for 24 h, 48 h, or 72 h. Cell lysates were then used for western blot analysis of lamin A degradation product using an antibody that recognizes specifically the proteolytic cleavage product. β-Actin was used as an internal control.
In general terms: In western blotting, separated proteins are transferred to a membrane and probed.

Each structure is given as a SMILES string.

Regarding `CC(N)(Cc1c[nH]c2ccccc12)C(=O)O` (racemic) [α-MT, α-methyl-DL-tryptophan], the “blockade of amino acid-induced inward currents” value on Human SLC6A14 is on record as “blocked”. The “tumor growth in xenograft” value with MB231 cells was “did not affect the growth”; in the assay with ZR75.1 cells, “reduced the growth”. The mTOR activity entry in assay [1] was “not affected”.

For the origin of these results see patent US20140024663A1, “ATB(0,+) AMINO ACID TRANSPORTER AS A DRUG TARGET FOR TREATMENT OF ESTROGEN RECEPTOR-POSITIVE BREAST CANCER” (GEORGIA HEALTH SCIENCES UNIVERSITY RESEARCH INSTITUTE, INC., priority 2012, published 2014).
